Measured values taken from patent publication EP4407316A1, “PROTEASOMAL DEGRADATION OF PROTEINS” (Katholieke Universiteit Leuven, KU Leuven R&D, priority 2023, dated 2024).

Tests used:
XPO1 = target: T1, XPO1 (Homo sapiens, UniProt O14980); test: Western blot (Simple Western) monitoring XPO1 degradation in HAP1 cells; format: cell-based; conditions: for XPO1 degradation: overnight treatment
T1 construct: endogenous in cells
Excerpt: Figure 4. XPO1 protein degradation is regulated by ASB8. a-b Sensitization profile of HAP1 cells with either knockout or overexpression of ASB8 under selection with selinexor. Cell viability when transduced with a safe-targeting or ASB8 targeting sgRNA (a). Cell viability when transduced with a non-coding stuffer sequence or ASB8 coding sequence at two different multiplicities of infection (MOI) (b). After four days of treatment with compound at the indicated concentrations, cell viability was measured by MTS assay. Data were normalized to untreated cells and represent mean ±SD of three separate experiments performed in triplicate. IC50 values were compared with control using an extra sum-of-squares F-test. c-d Monitoring of XPOL degradation in HAP1 cells with western blot. Comparison of cells stably transduced with a safe-targeting versus ASB8 targeting sgRNA (c) or with a stuffer sequence versus ASB8 coding sequence (d). Cells were treated overnight with selinexor and bortezomib as indicated. Cells were harvested and total lysates were probed for XPO1 and TUBB (β-tubulin) protein levels. e Time-of-drug-addition assay in HAP1 cells harboring a stuffer or ASB8 coding sequence (MOI=0.2). Duration of treatment with selinexor is as indicated. For bortezomib, length of treatment was 24 h for all conditions. f Selinexor-induced degradation of XPO1 in HAP1 cells with an endogenous Cys528Ser mutation introduced by CRISPR-mediated homology-directed repair. Following stable transduction of XPOL wild-type and mutant cells with a stuffer or ASB8 coding sequence (MOI=0.2), cells were treated overnight with compound as indicated.
For the experiments monitoring XPO1 degradation, HAP1 cells were seeded in 6-well plates at 100,000 cells/mL. The next day, cells were treated with selinexor and/or bortezomib as indicated. The pan-caspase inhibitor Q-VD-OPh was added to all conditions at 10 µM final concentration to delay onset of apoptosis. Cells were treated with compound overnight or as indicated. Next, cells were harvested, washed with ice-cold PBS and lysed in RIPA buffer (Thermo Fisher Scientific) with 1× HALT Protease Inhibitor Cocktail (Thermo Fisher Scientific) on ice for 20 min. Cell debris was removed by centrifugation at 20.000 × g and 4 °C for 10 min and total protein content was quantified with the Pierce BCA Protein Assay kit (Thermo Fisher Scientific). We used an automated, capillary-based Simple Western size assay (Wes, ProteinSimple) to detect and quantify our proteins of interest. 5 µL of lysate at a final concentration of 200 µg/mL was loaded onto the assay plate. For detection, the following primary antibodies and dilutions were used: CRM1/XPO1 (NB100-79802, Novus, 1:1000), TUBB (NB600-936, Novus, 1:40) and FLAG (F4049, Sigma-Aldrich, 1:250). […]

[1] = system: ASB8 knockout and overexpressing cells; test: MTS cell viability assay in ASB8 knockout and ASB8 overexpressing cells; format: cell-based, human; conditions: HAP1 four days, KMS-28BM six days of treatment
Excerpt: (§1) Figure 4. XPO1 protein degradation is regulated by ASB8. a-b Sensitization profile of HAP1 cells with either knockout or overexpression of ASB8 under selection with selinexor. Cell viability when transduced with a safe-targeting or ASB8 targeting sgRNA (a). Cell viability when transduced with a non-coding stuffer sequence or ASB8 coding sequence at two different multiplicities of infection (MOI) (b). After four days of treatment with compound at the indicated concentrations, cell viability was measured by MTS assay. Data were normalized to untreated cells and represent mean ±SD of three separate experiments performed in triplicate. IC50 values were compared with control using an extra sum-of-squares F-test. c-d Monitoring of XPOL degradation in HAP1 cells with western blot. Comparison of cells stably transduced with a safe-targeting versus ASB8 targeting sgRNA (c) or with a stuffer sequence versus ASB8 coding sequence (d). Cells were treated overnight with selinexor and bortezomib as indicated. […]
(§2) Figure 10. a Viability of KMS-28BM cells stably transduced with a stuffer or ASB8 coding lentiviral vector and treated with different concentrations of selinexor. b-e Viability of ASB8 knockout and ASB8 overexpressing HAP1 cells treated with different concentrations of KPT-9274 (b, c) or ispinesib (d, e). f-g Viability of ASB8 overexpressing KMS-28BM cells treated with different concentrations of KPT-9274 (f) or ispinesib (g). After four days (HAP1) or six days (KMS-28BM) of treatment with compound at the indicated concentrations, cell viability was measured by MTS assay. […] IC50 values were compared with control using an extra sum-of-squares F-test. h Representative images of fluorescence microscopy imaging of subcellular ASB8 localization. […]
HAP1 cells were seeded in 96-well plates at 2500 cells/well in 100 µL medium. […] For each experiment, absorbance measurements of three replicate wells were averaged. […]

ASB8 interacts with XPO1 = target: T2, ASB8 interacts with XPO1 (Homo sapiens, UniProt O14980); test: Co-immunoprecipitation of XPO1 with FLAG-ASB8 in HEK293T cells; format: binding; conditions: HEK293T cells co-transfected with XPO1 and FLAG-ASB8; 15 minutes treatment; higher concentrations
T2 construct: expressed in transfected cells; host or cells: HEK293T cells, transient transfection (TurboFectin 8.0)
Description: Figure 5. ASB8 interacts with XPO1. HEK293T cells were transiently transfected with XPO1 alone or together with either FLAG-ASB8 or FLAG-luc2 plasmids. After 24 hours, selinexor was added at the indicated concentrations and cells were incubated for 15 minutes. Next, cells were collected and incubated with lysis buffer for 20 minutes (whole-cell lysate, WCL). From these lysates, FLAG fusions were pulled down and co-immunoprecipitation of XPO1 was checked with western blot (IP: FLAG).
as §2
The protocol for lysis and co-immunoprecipitation was modified from an earlier report^64. […] After 15 min of incubation, cells were harvested and counted. […]

ASB8 = test: Immunofluorescence staining of subcellular ASB8 localization in HAP1 cells; format: cell-based, human; conditions: stable FLAG-ASB8 expressing HAP1 cells; 200 nM overnight
Excerpt: Figure 10. a Viability of KMS-28BM cells stably transduced with a stuffer or ASB8 coding lentiviral vector and treated with different concentrations of selinexor. b-e Viability of ASB8 knockout and ASB8 overexpressing HAP1 cells treated with different concentrations of KPT-9274 (b, c) or ispinesib (d, e). f-g Viability of ASB8 overexpressing KMS-28BM cells treated with different concentrations of KPT-9274 (f) or ispinesib (g). After four days (HAP1) or six days (KMS-28BM) of treatment with compound at the indicated concentrations, cell viability was measured by MTS assay. Data were normalized to untreated cells and represent mean ±SD of two or three separate experiments performed in triplicate. IC50 values were compared with control using an extra sum-of-squares F-test. h Representative images of fluorescence microscopy imaging of subcellular ASB8 localization. HAP1 cells with a stably integrated FLAG-ASB8 or a non-coding stuffer sequence were treated overnight with DMSO or 200 nM selinexor. Cells were fixed and stained with a primary anti-FLAG antibody. Nuclei were stained with DAPI. Figure 11. Co-immunoprecipitation of XPO1 with ASB8. HEK293T cells were transiently transfected with XPOL together with either FLAG-ASB8 or KPNA3-FLAG (control) plasmids. After 24 hours, selinexor was added at the indicated concentrations and cells were incubated for an additional 15 minutes. […]

HAP1 cells = test: Live cell count to establish selinexor IC values for CRISPR screening; format: cell-based; conditions: Homo sapiens, 96 h, live cells counted after four days and compared to untreated control flask
Excerpt: To detect gene loss-of-function events that modulate sensitivity to XPO1 inhibition, we conducted genome-wide CRISPR-Cas9 screens in cells under selection with selinexor. We selected HAP1 cells for our initial screen as this chronic myeloid leukemia cell line is a relevant model^66,67 and has suitable characteristics for CRISPR screening, including a high proliferation rate and transduction efficiency. HAP1 cells were transduced with the Brunello genome-wide CRISPR knockout library in the one-vector configuration, in which sgRNA and Cas9 are expressed from a single lentiviral construct. Cells were split into control (DMSO) and selinexor-treated arms, further divided into three replicates per arm and passaged in parallel for 24 days (Fig. 1a). Selinexor was used at a concentration of 100 nM, corresponding to the IC50, i.e., the concentration at which the live cell count in the treated arm was half of that in the control arm after […]. At each passage, cells were harvested and per arm, an equal number of cells was reseeded with fresh compound. […]
To establish IC values for screening, cells were seeded in 150-cm^2 flasks and treated with selinexor at different concentrations for four days after which live cells were counted and compared to an untreated control flask. […]

KMS-28BM cells = test: as above; format: cell-based; conditions: Homo sapiens, 96 h, live cells counted after four days and compared to untreated control flask
Description: (§3) To establish IC values for screening, cells were seeded in 150-cm^2 flasks and treated with selinexor at different concentrations for four days after which live cells were counted and compared to an untreated control flask. HAP1, KMS-28BM and SK-MM-1 cells were screened with the one-vector library encoding both sgRNA and Cas9 while for DS and RL cells, the two-vector library, which uses two separate vectors for the sgRNA and Cas9, was used. Cells were transduced at a MOI of approximately 0.25 and a coverage of >200-fold. Puromycin-selected cells were allowed to recover for 4-7 days after which selection with selinexor started. […] In addition, KMS-28BM were also screened at IC20, corresponding to a concentration of 40 nM. Finally, for every cell line, a no-drug condition was included (DMSO). For each condition, three parallel replicates containing at least 20 × 10^6 cells each were initiated after puromycin selection and maintained independently throughout screening and downstream processing. Cells were passaged every 2-4 days and cell pellets of 20 × 10^6 were collected at regular intervals. Screening continued for >20 cell doublings, more precisely until day 24, 42, 28, 28 and 25 for HAP1, KMS-28BM, SK-MM-1, DS and RL cells, respectively.

DS cells = test: as above; format: cell-based; conditions: Homo sapiens, 96 h, live cells counted after four days and compared to untreated control flask
Description: as §3

SK-MM-1 cells = test: as above; format: cell-based; conditions: Homo sapiens, 96 h, live cells counted after four days and compared to untreated control flask
Description: as §3

RL cells = test: as above; format: cell-based; conditions: Homo sapiens, 96 h, live cells counted after four days and compared to untreated control flask
Description: as §3

XPO1 Cys528Ser mutation = target: T3, XPO1 Cys528Ser mutation (Homo sapiens, UniProt O14980, C528S); test: Western blot (Simple Western) monitoring XPO1 degradation in HAP1 XPO1 C528S mutant cells; format: cell-based; conditions: HAP1 cells with endogenous XPO1 Cys528Ser mutation; control and ASB8 overexpressing; overnight treatment
T3 construct: HAP1 cells with an endogenous Cys528Ser mutation introduced by CRISPR-mediated homology-directed repair; endogenous in cells
Excerpt: as §1, with “(d).” for “(d). Cells were treated overnight with selinexor and bortezomib as indicated.”
For the experiments monitoring XPO1 degradation, HAP1 cells were seeded in 6-well plates at 100,000 cells/mL. […] Cell debris was removed by centrifugation at 20.000 × g and 4 °C for 10 min and total protein content was quantified with the Pierce BCA Protein Assay kit (Thermo Fisher Scientific). We used an automated, capillary-based Simple Western size assay (Wes, ProteinSimple) to detect and quantify our proteins of interest. […]

T1 sequence (O14980 whole entry): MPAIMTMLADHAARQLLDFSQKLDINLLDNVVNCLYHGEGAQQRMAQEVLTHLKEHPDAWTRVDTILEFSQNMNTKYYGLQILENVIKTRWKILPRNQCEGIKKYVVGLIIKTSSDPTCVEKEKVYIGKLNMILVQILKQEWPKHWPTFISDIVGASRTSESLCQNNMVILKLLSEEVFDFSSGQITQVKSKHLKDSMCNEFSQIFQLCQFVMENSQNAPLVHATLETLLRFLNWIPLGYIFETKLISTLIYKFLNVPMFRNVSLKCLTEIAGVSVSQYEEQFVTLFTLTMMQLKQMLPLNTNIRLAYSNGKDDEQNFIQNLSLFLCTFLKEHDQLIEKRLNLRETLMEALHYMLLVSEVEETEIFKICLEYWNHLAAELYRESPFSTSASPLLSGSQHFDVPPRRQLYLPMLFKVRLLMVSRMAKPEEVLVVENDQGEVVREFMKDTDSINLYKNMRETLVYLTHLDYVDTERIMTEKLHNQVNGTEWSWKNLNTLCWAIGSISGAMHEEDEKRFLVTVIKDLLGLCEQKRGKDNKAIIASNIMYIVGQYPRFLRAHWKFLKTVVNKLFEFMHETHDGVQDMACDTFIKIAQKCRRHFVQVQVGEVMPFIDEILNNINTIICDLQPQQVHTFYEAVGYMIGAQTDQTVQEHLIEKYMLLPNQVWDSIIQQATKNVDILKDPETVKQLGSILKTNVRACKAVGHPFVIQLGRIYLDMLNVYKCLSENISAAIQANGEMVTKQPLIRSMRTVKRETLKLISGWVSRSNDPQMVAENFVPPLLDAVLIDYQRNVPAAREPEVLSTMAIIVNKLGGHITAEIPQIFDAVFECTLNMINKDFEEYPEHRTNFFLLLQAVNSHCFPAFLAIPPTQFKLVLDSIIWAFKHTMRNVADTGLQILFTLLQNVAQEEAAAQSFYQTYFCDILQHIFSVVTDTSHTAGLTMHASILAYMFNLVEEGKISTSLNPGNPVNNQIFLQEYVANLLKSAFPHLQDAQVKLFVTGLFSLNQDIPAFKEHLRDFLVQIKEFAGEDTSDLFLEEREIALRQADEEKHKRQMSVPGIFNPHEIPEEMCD
T3 sequence (O14980 whole entry C528S): as the sequence (O14980 whole entry) above, with C528S counted along it
T2 sequence (O14980 whole entry): as the sequence (O14980 whole entry) above
T2 sequence (Q9H765 whole entry partner): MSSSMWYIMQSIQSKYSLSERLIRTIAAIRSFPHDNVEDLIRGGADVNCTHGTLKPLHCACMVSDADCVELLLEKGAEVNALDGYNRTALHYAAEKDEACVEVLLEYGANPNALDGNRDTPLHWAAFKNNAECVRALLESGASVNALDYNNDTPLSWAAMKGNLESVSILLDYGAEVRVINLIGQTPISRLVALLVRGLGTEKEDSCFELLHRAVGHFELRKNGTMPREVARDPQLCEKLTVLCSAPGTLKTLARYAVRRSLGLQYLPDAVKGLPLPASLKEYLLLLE

CC(C)C[C@H](NC(=O)[C@H](Cc1ccccc1)NC(=O)c1cnccn1)B(O)O [bortezomib] was tested, and the “effect on selinexor-induced XPO1 degradation” value (XPO1; HAP1 control cells with safe-targeting sgRNA, co-treatment with selinexor overnight) was “prevented”.
For Cc1ccc(C(=O)N(CCCN)[C@@H](c2nc3cc(Cl)ccc3c(=O)n2Cc2ccccc2)C(C)C)cc1 [ispinesib], the “sensitivity (dose-response) in ASB8 knockout and overexpressing cells versus control” value [1] was “no difference in response”.
For O=C(/C=C\n1cnc(-c2cc(C(F)(F)F)cc(C(F)(F)F)c2)n1)NNc1cnccn1 [selinexor], the “amount of XPO1 co-immunoprecipitated with FLAG-ASB8” value (ASB8 interacts with XPO1) was “increased the amount of immunoprecipitated XPO1”, the “nuclear accumulation of ASB8” value (ASB8) was “did not observe nuclear accumulation of ASB8” and the “sensitivity (dose-response) in ASB8 knockout and overexpressing cells versus control” value [1] was “increased sensitivity”. For the same compound, the XPO1 degradation (XPO1; HAP1 ASB8 knockout cells) was “did not observe selinexor-induced XPOL degradation to the same extent”, the XPO1 degradation (XPO1; HAP1 ASB8 overexpressing cells, with and without bortezomib) was “XPO1 was profoundly depleted even in the presence of bortezomib” and the XPO1 degradation (XPO1; HAP1 control cells with safe-targeting sgRNA) was “dose-dependent degradation of XPO1”. For the same compound, the IC50 (HAP1 cells) was 0.1 µM, the IC20 (KMS-28BM cells) was 0.04 µM and the IC50 (KMS-28BM cells) was 0.125 µM. The IC50 (DS cells) was 0.2 µM, the IC50 (SK-MM-1 cells) was 0.14 µM and the IC50 (RL cells) was 0.04 µM. For the same compound, the XPO1 degradation (XPO1 Cys528Ser mutation) was “did not trigger XPO1 degradation”.
With Nc1ccc(/C=C/C(=O)NCc2cc3cc(-c4ccc(C(=O)N5CCC(F)(F)CC5)cc4)cc(-c4ccc(F)cc4)c3o2)cn1 [KPT-9274] the “sensitivity (dose-response) in ASB8 knockout and overexpressing cells versus control” value [1] was “no difference in response”.
